ChEMBL document CHEMBL6182926, “Design, Synthesis, and Biological Activity Evaluation of Deuterated Diphenyl Azole Alcohol-Based CYP51 Inhibitors” (J Med Chem, 2025)
≈ marks a conversion by molar mass, not a printed value.

Assays:
Type in all cases: functional
Pichia kudriavzevii = assay: Antifungal activity against Candida krusei AS 2.1045 assessed as inhibition of visible growth
Cryptococcus neoformans = assay: Antifungal activity against Cryptococcus neoformans CGMCC 2.3161 assessed as inhibition of visible growth
Candida tropicalis = assay: Antifungal activity against Candida tropicalis CGMCC 2.3739 assessed as inhibition of visible growth
Candida albicans [1] = assay: Antifungal activity against Candida albicans CPCC 400616 assessed as inhibition of visible growth
Candida albicans [2] = assay: Antifungal activity against Candida albicans SC 5314 assessed as inhibition of visible growth
Nakaseomyces glabratus = assay: Antifungal activity against Clinical isolate Candida glabrata assessed as inhibition of visible growth
Candida parapsilosis = assay: Antifungal activity against Candida parapsilosis GIM 2.190 assessed as inhibition of visible growth; conditions: Lodderomyces parapsilosis

Structure (SMILES)	MIC80 (Pichia kudriavzevii) [µg/mL]	MIC80 (Cryptococcus neoformans) [µg/mL]	MIC80 (Candida tropicalis) [µg/mL]	MIC80 (Candida albicans [1]) [µg/mL]	MIC80 (Candida albicans [2]) [µg/mL]	MIC80 (Nakaseomyces glabratus) [µg/mL]	MIC80 (Candida parapsilosis) [µg/mL]
CN(Cc1ccc(-c2cccc(Cl)c2)cn1)CC(O)(Cn1cncn1)c1ccc(F)cc1F (stereo not drawn)	0.1 (≈ 0.213 µM)	0.025 (≈ 0.0532 µM)	0.012 (≈ 0.0255 µM)	0.012 (≈ 0.0255 µM)	0.012 (≈ 0.0255 µM)	0.2 (≈ 0.426 µM)	0.012 (≈ 0.0255 µM)
CN(Cc1ccc(-c2ccc(C(F)(F)F)cc2)nc1)CC(O)(Cn1cncn1)c1ccc(F)cc1F (stereo not drawn)	0.025 (≈ 0.0497 µM)	0.025 (≈ 0.0497 µM)	0.012 (≈ 0.0238 µM)	0.012 (≈ 0.0238 µM)	0.012 (≈ 0.0238 µM)	0.2 (≈ 0.397 µM)	0.006 (≈ 0.0119 µM)
CN(Cc1ccc(-c2ccc(OC(F)(F)F)cc2)o1)CC(O)(Cn1cncn1)c1ccc(F)cc1F (stereo not drawn)	0.1 (≈ 0.197 µM)	0.2 (≈ 0.393 µM)	0.012 (≈ 0.0236 µM)	0.012 (≈ 0.0236 µM)	0.025 (≈ 0.0492 µM)	0.1 (≈ 0.197 µM)	0.05 (≈ 0.0983 µM)
CN(Cc1ccc(-c2ccccc2)cn1)CC(O)(Cn1cncn1)c1ccc(F)cc1F (stereo not drawn)	0.2 (≈ 0.459 µM)	0.1 (≈ 0.23 µM)	0.025 (≈ 0.0574 µM)	0.025 (≈ 0.0574 µM)	0.012 (≈ 0.0276 µM)	0.8 (≈ 1.84 µM)	0.025 (≈ 0.0574 µM)
CN(Cc1ccc(-c2ccc(Cl)c(F)c2)cc1)CC(O)(Cn1cncn1)c1ccc(F)cc1F (stereo not drawn)	0.012 (≈ 0.0246 µM)	0.012 (≈ 0.0246 µM)	0.006 (≈ 0.0123 µM)	0.006 (≈ 0.0123 µM)	0.006 (≈ 0.0123 µM)	0.025 (≈ 0.0513 µM)	0.006 (≈ 0.0123 µM)
CN(Cc1ccc(-c2ccc(C(F)(F)F)cc2)cc1)CC(O)(Cn1cncn1)c1ccc(F)cc1F (stereo not drawn)	0.025 (≈ 0.0498 µM)	0.05 (≈ 0.0995 µM)	0.012 (≈ 0.0239 µM)	0.012 (≈ 0.0239 µM)	0.012 (≈ 0.0239 µM)	0.025 (≈ 0.0498 µM)	0.006 (≈ 0.0119 µM)
[2H]C([2H])([2H])N(Cc1ccc(-c2ccc(Cl)cc2)cc1)CC(O)(Cn1cncn1)c1ccc(F)cc1F (stereo not drawn)	0.012 (≈ 0.0254 µM)	0.012 (≈ 0.0254 µM)	0.006 (≈ 0.0127 µM)	0.006 (≈ 0.0127 µM)	0.006 (≈ 0.0127 µM)	0.012 (≈ 0.0254 µM)	0.006 (≈ 0.0127 µM)
CN(Cc1ccc(-c2ccccc2Cl)cn1)CC(O)(Cn1cncn1)c1ccc(F)cc1F (stereo not drawn)	0.4 (≈ 0.851 µM)	0.1 (≈ 0.213 µM)	0.012 (≈ 0.0255 µM)	0.1 (≈ 0.213 µM)	0.025 (≈ 0.0532 µM)	0.8 (≈ 1.7 µM)	0.025 (≈ 0.0532 µM)
CN(Cc1nc(-c2ccc(OC(F)(F)F)cc2)cs1)CC(O)(Cn1cncn1)c1ccc(F)cc1F (stereo not drawn)	0.2 (≈ 0.381 µM)	0.1 (≈ 0.19 µM)	0.025 (≈ 0.0476 µM)	0.025 (≈ 0.0476 µM)	0.012 (≈ 0.0228 µM)	0.4 (≈ 0.761 µM)	0.025 (≈ 0.0476 µM)
CN(Cc1ccc(-c2ccccc2F)cn1)CC(O)(Cn1cncn1)c1ccc(F)cc1F (stereo not drawn)	0.4 (≈ 0.882 µM)	0.1 (≈ 0.221 µM)	0.012 (≈ 0.0265 µM)	0.025 (≈ 0.0551 µM)	0.012 (≈ 0.0265 µM)	0.8 (≈ 1.76 µM)	0.012 (≈ 0.0265 µM)
CN(Cc1ccc(-c2ccc(C(C)(C)C)cc2)cn1)CC(O)(Cn1cncn1)c1ccc(F)cc1F (stereo not drawn)	0.1 (≈ 0.203 µM)	0.012 (≈ 0.0244 µM)	0.006 (≈ 0.0122 µM)	0.025 (≈ 0.0509 µM)	0.012 (≈ 0.0244 µM)	0.2 (≈ 0.407 µM)	0.012 (≈ 0.0244 µM)
CC(C)c1ccc(-c2ccc(CN(C)CC(O)(Cn3cncn3)c3ccc(F)cc3F)nc2)cc1 (stereo not drawn)	0.1 (≈ 0.209 µM)	0.025 (≈ 0.0523 µM)	0.012 (≈ 0.0251 µM)	0.012 (≈ 0.0251 µM)	0.012 (≈ 0.0251 µM)	0.2 (≈ 0.419 µM)	0.012 (≈ 0.0251 µM)
CN(Cc1ccc(-c2cccc(F)c2)cn1)CC(O)(Cn1cncn1)c1ccc(F)cc1F (stereo not drawn)	0.2 (≈ 0.441 µM)	0.05 (≈ 0.11 µM)	0.012 (≈ 0.0265 µM)	0.025 (≈ 0.0551 µM)	0.025 (≈ 0.0551 µM)	0.8 (≈ 1.76 µM)	0.012 (≈ 0.0265 µM)
CN(Cc1ccc(-c2ccc(C#N)cc2)cn1)CC(O)(Cn1cncn1)c1ccc(F)cc1F (stereo not drawn)	0.2 (≈ 0.434 µM)	0.8 (≈ 1.74 µM)	0.012 (≈ 0.0261 µM)	0.012 (≈ 0.0261 µM)	0.012 (≈ 0.0261 µM)	1.6 (≈ 3.47 µM)	0.1 (≈ 0.217 µM)
CN(Cc1ccc(-c2ccc(Cl)cc2)o1)CC(O)(Cn1cncn1)c1ccc(F)cc1F (stereo not drawn)	0.4 (≈ 0.872 µM)	0.4 (≈ 0.872 µM)	0.025 (≈ 0.0545 µM)	0.05 (≈ 0.109 µM)	0.025 (≈ 0.0545 µM)	0.4 (≈ 0.872 µM)	0.1 (≈ 0.218 µM)
CN(Cc1ccc(-c2ccc(Cl)cc2)nc1)CC(O)(Cn1cncn1)c1ccc(F)cc1F (stereo not drawn)	0.025 (≈ 0.0532 µM)	0.05 (≈ 0.106 µM)	0.012 (≈ 0.0255 µM)	0.012 (≈ 0.0255 µM)	0.012 (≈ 0.0255 µM)	0.1 (≈ 0.213 µM)	0.006 (≈ 0.0128 µM)
CN(Cc1cnc(-c2ccc(Cl)cc2)s1)CC(O)(Cn1cncn1)c1ccc(F)cc1F (stereo not drawn)	1.6 (≈ 3.36 µM)	1.6 (≈ 3.36 µM)	0.4 (≈ 0.84 µM)	0.2 (≈ 0.42 µM)	0.2 (≈ 0.42 µM)	1.6 (≈ 3.36 µM)	0.4 (≈ 0.84 µM)
CN(Cc1ccc(-c2ccc(-c3ccccc3)cc2)cn1)CC(O)(Cn1cncn1)c1ccc(F)cc1F (stereo not drawn)	0.1 (≈ 0.195 µM)	0.05 (≈ 0.0977 µM)	0.012 (≈ 0.0235 µM)	0.012 (≈ 0.0235 µM)	0.012 (≈ 0.0235 µM)	0.1 (≈ 0.195 µM)	0.012 (≈ 0.0235 µM)
CN(Cc1ccc(-c2ccc(Cl)cc2)cc1F)CC(O)(Cn1cncn1)c1ccc(F)cc1F (stereo not drawn)	0.025 (≈ 0.0513 µM)	0.012 (≈ 0.0246 µM)	0.006 (≈ 0.0123 µM)	0.006 (≈ 0.0123 µM)	0.006 (≈ 0.0123 µM)	0.025 (≈ 0.0513 µM)	0.006 (≈ 0.0123 µM)
